Reference: patent EP0816329A1, “Benzoic acid derivatives, process for their preparation and their use for the treatment of diseases” (HOECHST AKTIENGESELLSCHAFT, priority 1996, dated 1998)

System: Glucose-6-Phosphatase-System
Assay: Glucose-6-phosphatase enzyme test in liver microsomes (phosphate released from glucose-6-phosphate)
Assay type: biochemical, Wistar-Ratten
Details: Glucose-6-Phosphat 1 mMol/l, 0,1 mg Mikrosomen-Fraktion, pH 7,0, 20 min, room temperature
Protocol: Die Wirkung der erfindungsgemäßen Verbindungen auf das Glucose-6-Phosphatase-System wurde in einem Enzymtest in Lebermikrosomen untersucht.
Für die Präparation der die Glucose-6-Phosphatase enthaltenden Mikrosomen-Fraktion wurden frische Leber-Organe von männlichen Wistar-Ratten verwendet und wie in der Literatur beschrieben aufgearbeitet [Canfield, W. K. Und Arion, W.J., J. Biol. Chem. 263, 7458-7460, (1988)]. Diese Mikrosomen-Fraktion kann bei -70°C mindestens 2 Monate lang ohne signifikamten Aktivitätsverlust aufbewahrt werden.
Der Nachweis der Glucose-6-Phosphatase-Aktivität wurde wie in der Literatur angegeben (Arion, W. J. in Methods Enzymol. 174, Academic Press 1989, Seite 58 - 67) durch Bestimmung des aus Glucose-6-Phosphat freigesetzten Phosphats durchgeführt. 0,1 ml Testansatz enthielten Glucose-6-Phosphat (1mMol/l), die Testsubstanz, 0,1 mg Mikrosomen-Fraktion und 100 mMol/l HEPES-Puffer (4-(2-Hydroxyethyl)piperazin-1-ethansulfonsäure), pH 7,0. Die Reaktion wurde durch Zugabe des Enzyms gestartet. Nach Ablauf von 20 Minuten bei Raumtemperatur wurde die Reaktion durch Zugabe von 0,2 ml Phosphat-Reagens gestoppt. Die Probe wurde 30 Minuten lang bei 37 °C inkubiert, und die Absorbtion (A) der blauen Farbe anschließend bei 570 nm gemessen. Die inhibitorische Wirksamkeit der Testsubstanz ergab sich durch Vergleich mit einer Kontroll-Reaktion, die keine Testsubstanz enthielt nach der Formel Prozent Hemmung =(A(Kontrolle) - A(Testsubstanz))/(A(Kontrolle))x 100 [formula]
Die hemmende Wirkung der Testsubstanz (Verbindungen 1 - 43) wurde bei den in der nachfolgenden Tabelle 1 angegebenen Konzentrationen der Testsubstanz ermittelt.

[1] = Inhibitorkonzentration 12,5 µM, 12.5 µM

For `O=C(Nc1ccc(-c2ccco2)c(C(=O)O)c1)c1cnc2ccccc2n1` [Beispiel 15], the “% Hemmung” value (Inhibitorkonzentration 100 µM) was 63%.
`COc1ccc2cc(-c3ccc(NC(=O)C4CC4)cc3C(=O)O)ccc2c1` [Beispiel 5] was tested, and the “% Hemmung” value (Inhibitorkonzentration 100 µM) was 51%.
For `COc1ccc(C(=O)Nc2ccc(C#Cc3ccc(C)cc3)c(C(=O)O)c2)c(OC)c1` [Beispiel 30], the “% Hemmung” value [1] was 52%.
In the case of `CC(C)(C)CC(=O)Nc1ccc(C#Cc2ccccc2)c(C(=O)O)c1` [Beispiel 27], the “% Hemmung” value [1] is reported as 58%.
`COc1ccc2cc(-c3ccc(NC(=O)CCC4CCCC4)cc3C(=O)O)ccc2c1` [Beispiel 9] was tested, and the “% Hemmung” value (Inhibitorkonzentration 100 µM) was 64%.
For `Cc1ccc(C#Cc2ccc(NC(=O)c3ccccc3O)cc2C(=O)O)cc1` [Beispiel 43], the “% Hemmung” value [1] was 55%.
For `O=C(O)c1cc(NC(=O)c2c(F)c(F)c(F)c(F)c2F)ccc1C#Cc1ccccc1` [Beispiel 26], the “% Hemmung” value [1] was 54%.
In the case of `O=C(Nc1ccc(C#Cc2ccccc2)c(C(=O)O)c1)c1ccccc1Cl` [Beispiel 20], the “% Hemmung” value [1] is reported as 100%.
`O=C(Nc1ccc(-c2cccs2)c(C(=O)O)c1)c1ccc2ccccc2c1` [Beispiel 13] was tested, and the “% Hemmung” value (Inhibitorkonzentration 100 µM) was 53%.
`N#Cc1cccc(C(=O)Nc2ccc(C#Cc3ccccc3)c(C(=O)O)c2)c1` [Beispiel 19] was tested, and the “% Hemmung” value [1] was 98%.
With `COc1ccc2cc(-c3ccc(NC(=O)c4ccco4)cc3C(=O)O)ccc2c1` [Beispiel 6] the “% Hemmung” value (Inhibitorkonzentration 100 µM) was 61%.
With `Cc1ccc(C#Cc2ccc(NC(=O)c3cc(C(F)(F)F)cc(C(F)(F)F)c3)cc2C(=O)O)cc1` [Beispiel 33] the “% Hemmung” value [1] was 77%.
For `COc1ccc2cc(-c3ccc(NC(=O)c4cccc(F)c4)cc3C(=O)O)ccc2c1` [Beispiel 8], the “% Hemmung” value (Inhibitorkonzentration 100 µM) was 77%.
`Cc1ccc(C#Cc2ccc(NC(=O)c3cccc(Cl)c3)cc2C(=O)O)cc1` [Beispiel 37] was tested, and the “% Hemmung” value [1] was 55%.
`COc1cccc(C(=O)Nc2ccc(C#Cc3ccc(C)cc3)c(C(=O)O)c2)c1` [Beispiel 36] was tested, and the “% Hemmung” value [1] was 78%.
With `Cc1ccc(C#Cc2ccc(NC(=O)CCC3CCCC3)cc2C(=O)O)cc1` [Beispiel 35] the “% Hemmung” value [1] was 76%.
For `O=C(Nc1ccc(CCCCCl)c(C(=O)O)c1)Nc1ccc(Cl)c(C(F)(F)F)c1` [Beispiel 4], the “% Hemmung” value (Inhibitorkonzentration 100 µM) was 66%.
In the case of `COc1ccc(OC)c(CC(=O)Nc2ccc(-c3ccc4cc(OC)ccc4c3)c(C(=O)O)c2)c1` [Beispiel 7], the “% Hemmung” value (Inhibitorkonzentration 100 µM) is reported as 63%.
In the case of `Cc1ccc(C#Cc2ccc(NC(=O)c3cnc4ccccc4n3)cc2C(=O)O)cc1` [Beispiel 29], the “% Hemmung” value [1] is reported as 73%.
`O=C(Nc1ccc(C#Cc2ccccc2)c(C(=O)O)c1)c1cccc(C(F)(F)F)c1` [Beispiel 23] was tested, and the “% Hemmung” value [1] was 63%.
In the case of `O=C(Nc1ccc(-c2ccco2)c(C(=O)O)c1)c1ccc2ccccc2c1` [Beispiel 14], the “% Hemmung” value (Inhibitorkonzentration 100 µM) is reported as 57%.
With `CC(C)(C)c1ccc(-c2ccc(NC(=O)C3CCCC3)cc2C(=O)O)cc1` [Beispiel 17] the “% Hemmung” value (Inhibitorkonzentration 100 µM) was 53%.
For `Cc1ccc(C#Cc2ccc(NC(=O)C(C)C)cc2C(=O)O)cc1` [Beispiel 40], the “% Hemmung” value [1] was 94%.
`O=C(O)c1cc(NC(=O)C2CCCCC2)ccc1C#Cc1ccccc1` [Beispiel 24] was tested, and the “% Hemmung” value [1] was 58%.
In the case of `Cc1ccc(C#Cc2ccc(NC(=O)c3cccc4ccccc34)cc2C(=O)O)cc1` [Beispiel 42], the “% Hemmung” value [1] is reported as 60%.
`Cc1ccc(C#Cc2ccc(NC(=O)c3cccc(C(F)(F)F)c3)cc2C(=O)O)cc1` [Beispiel 34] was tested, and the “% Hemmung” value [1] was 50%.
`COc1cc(OC)cc(C(=O)Nc2ccc(C#Cc3ccc(C)cc3)c(C(=O)O)c2)c1` [Beispiel 31] was tested, and the “% Hemmung” value [1] was 64%.
`O=C(C=Cc1ccccc1)Nc1ccc(-c2ccc(Cl)s2)c(C(=O)O)c1` [Beispiel 11] was tested, and the “% Hemmung” value (Inhibitorkonzentration 100 µM) was 57%.
`COc1ccc2cc(-c3ccc(NC(=O)c4cccs4)cc3C(=O)O)ccc2c1` [Beispiel 3] was tested, and the “% Hemmung” value (Inhibitorkonzentration 100 µM) was 93%.
With `COc1cccc(C(=O)Nc2ccc(C#Cc3ccccc3)c(C(=O)O)c2)c1` [Beispiel 18] the “% Hemmung” value [1] was 98%.
With `O=C(Nc1ccc(-c2ccc(Cl)s2)c(C(=O)O)c1)c1ccc2ccccc2c1` [Beispiel 12] the “% Hemmung” value (Inhibitorkonzentration 100 µM) was 71%.
With `O=C(Nc1ccc(C#Cc2ccccc2)c(C(=O)O)c1)c1ccc(Cl)cc1Cl` [Beispiel 21] the “% Hemmung” value [1] was 84%.
`Cc1ccc(C#Cc2ccc(NC(=O)c3cccc([N+](=O)[O-])c3)cc2C(=O)O)cc1` [Beispiel 38] was tested, and the “% Hemmung” value [1] was 50%.
In the case of `Cc1ccc(C#Cc2ccc(NS(=O)(=O)c3ccc([N+](=O)[O-])cc3)cc2C(=O)O)cc1` [Beispiel 39], the “% Hemmung” value [1] is reported as 62%.
For `COc1ccc2cc(-c3ccc(NC(=O)C=Cc4ccccc4)cc3C(=O)O)ccc2c1` [Beispiel 1], the “% Hemmung” value (Inhibitorkonzentration 100 µM) was 53%.
With `CC(C)(C)c1ccc(-c2ccc(NC(=O)COc3ccccc3)cc2C(=O)O)cc1` [Beispiel 16] the “% Hemmung” value (Inhibitorkonzentration 100 µM) was 50%.
In the case of `CC(C)(O)C(=O)Nc1ccc(C#Cc2ccccc2)c(C(=O)O)c1` [Beispiel 28], the “% Hemmung” value [1] is reported as 60%.
In the case of `COc1ccc(C(=O)Nc2ccc(C#Cc3ccc(C)cc3)c(C(=O)O)c2)cc1OC` [Beispiel 32], the “% Hemmung” value [1] is reported as 61%.
In the case of `O=C(CCCc1ccc(Cl)cc1)Nc1ccc(-c2ccc(Cl)s2)c(C(=O)O)c1` [Beispiel 10], the “% Hemmung” value (Inhibitorkonzentration 100 µM) is reported as 62%.
In the case of `COc1ccc2cc(-c3ccc(NC(=O)Cc4ccc(OC)c(OC)c4)cc3C(=O)O)ccc2c1` [Beispiel 2], the “% Hemmung” value (Inhibitorkonzentration 100 µM) is reported as 60%.
With `Cc1ccc(C#Cc2ccc(NC(=O)C(F)(F)C(F)(F)C(F)(F)F)cc2C(=O)O)cc1` [Beispiel 41] the “% Hemmung” value [1] was 71%.
For `O=C(Nc1ccc(C#Cc2ccccc2)c(C(=O)O)c1)c1cccc(F)c1` [Beispiel 22], the “% Hemmung” value [1] was 100%.
With `O=C(Nc1ccc(C#Cc2ccccc2)c(C(=O)O)c1)c1cccc([N+](=O)[O-])c1` [Beispiel 25] the “% Hemmung” value [1] was 51%.
